“Also recorded” adds a separate entry of the source.
Columns and labels:
[1] = test system: MB49 bladder cancer cells; test: Tumor growth inhibition by peptide vaccines in the mouse bladder cancer treatment model; assay type: in vivo, C57BL/6 mice; conditions: 3×10^5 MB49 cells s.c. on Day 0; peptide 100 μg/100 μL + CpG ODN 1826 10 μM s.c. on day 3, 6, 9, 12, 15, 18, 21; tumor size every 3 days; vs DPBS and CpG groups
Procedure: Cancer cells and animal model: MB49 bladder cancer cells were grown in DMEM containing 10% FBS (Fetal Bovine Serum, Gibco, 10099141C) and 1% PS (Penicillin-Streptomycin-Glutamine, Gibco, 10378016). 3×10^5 MB49 cancer cells were resuspended in 100 μL of DPBS and injected subcutaneously into a lower back of male C57BL/6 mice (6-8 weeks old), respectively to construct a mouse bladder cancer treatment model. After the initial implantation of tumors, the mice developed tumors around 5 days, and after tumor formation, the tumor growth was monitored every other 3 days, and a long diameter (a) and a short diameter (b) of the tumor were measured with a vernier caliper, and the size of each solid tumor was calculated according to the solid tumor size V=axbxb/2, and a tumor growth curve was plotted. […]
FIG. 2 is a graph showing the detection results of a tumor growth inhibition assay of antigenic epitope peptides derived from various genes tested. […] The tumor size in the mice was detected every 3 days.
FIG. 3 is a graph showing the detection results of testing the inhibitory effect of mixed peptide vaccines on tumor growth after vaccines are prepared by mixing the effective antigenic epitope peptides. […] The tumor size in the mice was detected every 3 days. […]

[2] = test system: splenocytes (IFN-γ secreting T cells); test: IFN-γ ELISPOT of splenocytes co-cultured with peptides; assay type: cell-based; conditions: splenocytes of immunized mice, 5×10^5/well, co-cultured with peptide (10 μg) for 20 h; vs DPBS and CpG groups
Procedure: Isolate splenocytes: Spleens were gently mashed and filtered through a 70-μm strainer (Falcon, Corning, Germany), and then collected into a 15 mL centrifuge tube. After adding 1 mL erythrocyte lysis buffer and washing in PBS, cells were collected for ELISPOT assay.
Enzyme-linked immunospot assay (ELISPOT): splenocytes were isolated according to the above method and were co-cultured with different polypeptides (10 μg) at 5×10^5/well for 20 h. The size and number of IFN-γ positive spots were calculated by using Adobe Photoshop CS6 software.
FIGS. 5A and 5B is a graph showing the detection results of the ability of specific T cells to secrete IFN-γ induced by tumor antigen epitope peptides. In FIGS. 5A and 5B, the experimental mice were euthanized, the monocytes derived from spleens were co-cultured with different peptides for 20 h to detect the secretion of IFN-γ by ELISPOT assay according to the manufacturer's instructions. Spleens were gently mashed and monocytes were isolated using a lymphocyte separation medium. The monocytes were incubated into wells of an ELISPOT plate and stimulated synchronously. The cells were incubated in an incubator at 37° C. and cytokines were captured. The number of T cells specifically secreting IFN-γ in splenocytes of the immunized mice can be detected by detecting the formation of spots.

Sequence: FYMMPVNSEVM [NUF-2]
- Inhibition of tumor growth (tumor size) [1]: can effectively inhibit the growth of bladder cancer; also recorded: significantly inhibited the growth of bladder cancer; also recorded: most significant tumor-inhibiting effects
- Specific T-cell response (IFN-γ secretion, ELISPOT) [2]: can strongly stimulate the immune response of specific T cells; also recorded: significant T-cell responses; also recorded: strongest T-cell response

Sequence: VHLAKSLPL [CENPM]
- Inhibition of tumor growth (tumor size) [1]: partial tumor growth inhibitory effect; also recorded: did not show significant tumor inhibition; also recorded: does not show strong anti-tumor effects
- Specific T-cell response (IFN-γ secretion, ELISPOT) [2]: can strongly stimulate the immune response of specific T cells; also recorded: significant T-cell responses; also recorded: can induce T-cell responses
